We go through three compounds from patent US20060039867A1, “Method for treating sleep-related breathing disorders with setiptiline” (Cypress Bioscience, Inc., priority 2004, published 2006).

Where two headings read alike, the source gives them in different places.

Test [1] concerns the target 5HT2, non-selective. In words: Receptor binding, 5HT2 non-selective. Particulars: 5HT2, non-selective receptor; read-out: Setiptiline (Ki). From the text: (§1) 5HT3 antagonists are used to treat various maladies of the gastrointestinal tract, such as irritable bowel syndrome-diarrhea predominant and nausea and vomiting associated with chemotherapy. One potentially serious side effect of strong 5HT3 antagonists is constipation, which in some cases may be so severe as to lead to ischemic colitis.

The target of a further test is NET (Homo sapiens, UniProt P23975). Kind of test: Receptor binding, NET. Particulars: read-out: Setiptiline (Ki).
Chain of NET (P23975 whole entry): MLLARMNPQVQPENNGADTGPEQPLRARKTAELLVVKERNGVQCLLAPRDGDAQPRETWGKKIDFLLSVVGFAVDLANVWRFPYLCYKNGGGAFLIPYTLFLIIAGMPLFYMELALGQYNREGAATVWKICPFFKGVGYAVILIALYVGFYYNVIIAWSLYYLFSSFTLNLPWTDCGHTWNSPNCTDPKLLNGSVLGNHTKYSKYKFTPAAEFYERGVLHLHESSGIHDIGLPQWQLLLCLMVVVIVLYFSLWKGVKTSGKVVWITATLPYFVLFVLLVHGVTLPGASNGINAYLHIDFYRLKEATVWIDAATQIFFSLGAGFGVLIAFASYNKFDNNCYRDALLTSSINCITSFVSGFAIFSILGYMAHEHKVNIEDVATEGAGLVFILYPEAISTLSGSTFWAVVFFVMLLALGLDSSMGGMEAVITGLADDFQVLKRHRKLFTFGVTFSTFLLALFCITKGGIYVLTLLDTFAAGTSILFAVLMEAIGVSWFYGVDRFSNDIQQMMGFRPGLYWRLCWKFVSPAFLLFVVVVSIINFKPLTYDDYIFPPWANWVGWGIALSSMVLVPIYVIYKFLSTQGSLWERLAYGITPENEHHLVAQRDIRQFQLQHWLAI
Text: as §1

Test [2] addresses T1, 5HT2C (Homo sapiens, UniProt P28335). In words: Receptor binding, 5HT2C. Particulars: 5HT2C receptor; read-out: Setiptiline (Ki).
Text: as §1

The target in the next test is T2, Muscarinic M1 (Homo sapiens, UniProt P11229).
T2 sequence (P11229 1-460): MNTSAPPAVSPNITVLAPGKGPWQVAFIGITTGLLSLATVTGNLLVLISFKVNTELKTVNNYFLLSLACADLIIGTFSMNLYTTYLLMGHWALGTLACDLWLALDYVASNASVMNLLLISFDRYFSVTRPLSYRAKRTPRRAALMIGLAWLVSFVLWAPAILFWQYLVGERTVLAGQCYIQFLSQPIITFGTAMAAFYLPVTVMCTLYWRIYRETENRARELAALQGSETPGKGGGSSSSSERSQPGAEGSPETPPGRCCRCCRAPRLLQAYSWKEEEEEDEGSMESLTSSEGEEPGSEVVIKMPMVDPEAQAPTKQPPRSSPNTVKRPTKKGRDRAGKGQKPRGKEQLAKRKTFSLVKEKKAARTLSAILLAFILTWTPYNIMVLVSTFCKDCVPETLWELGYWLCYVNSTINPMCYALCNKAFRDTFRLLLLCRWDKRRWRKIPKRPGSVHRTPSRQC
In words: Receptor binding, Muscarinic M1. Particulars: read-out: Setiptiline (Ki).
Text: as §1

The target in a further test is SERT (Homo sapiens, UniProt P31645). Kind of test: Receptor binding, SERT. As to conditions: read-out: Setiptiline (Ki).
Chain of SERT (P31645 whole entry, species assumed): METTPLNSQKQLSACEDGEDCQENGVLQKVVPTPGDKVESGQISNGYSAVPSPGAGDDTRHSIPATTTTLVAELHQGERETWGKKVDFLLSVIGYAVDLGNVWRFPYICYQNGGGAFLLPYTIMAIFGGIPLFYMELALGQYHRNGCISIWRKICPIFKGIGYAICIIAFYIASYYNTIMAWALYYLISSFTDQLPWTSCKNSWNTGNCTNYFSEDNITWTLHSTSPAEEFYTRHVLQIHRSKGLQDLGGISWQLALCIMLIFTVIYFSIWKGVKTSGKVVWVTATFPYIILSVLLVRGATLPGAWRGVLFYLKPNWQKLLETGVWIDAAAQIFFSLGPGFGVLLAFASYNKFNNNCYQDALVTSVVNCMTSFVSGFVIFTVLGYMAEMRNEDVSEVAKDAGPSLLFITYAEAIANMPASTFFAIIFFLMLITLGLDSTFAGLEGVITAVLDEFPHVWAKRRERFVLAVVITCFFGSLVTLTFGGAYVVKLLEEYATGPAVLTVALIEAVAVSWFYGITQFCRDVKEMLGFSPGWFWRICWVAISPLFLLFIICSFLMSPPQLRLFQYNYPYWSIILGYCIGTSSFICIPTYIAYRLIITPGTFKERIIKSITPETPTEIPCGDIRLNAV
Text: as §1

Test [3] addresses α1, non-selective. Kind of test: Receptor binding, α1 non-selective. Particulars: read-out: Setiptiline (Ki).
Text: as §1

Test [4] deals with T3, 5HT3 (Homo sapiens, UniProt P46098).
T3 sequence (P46098 24-478): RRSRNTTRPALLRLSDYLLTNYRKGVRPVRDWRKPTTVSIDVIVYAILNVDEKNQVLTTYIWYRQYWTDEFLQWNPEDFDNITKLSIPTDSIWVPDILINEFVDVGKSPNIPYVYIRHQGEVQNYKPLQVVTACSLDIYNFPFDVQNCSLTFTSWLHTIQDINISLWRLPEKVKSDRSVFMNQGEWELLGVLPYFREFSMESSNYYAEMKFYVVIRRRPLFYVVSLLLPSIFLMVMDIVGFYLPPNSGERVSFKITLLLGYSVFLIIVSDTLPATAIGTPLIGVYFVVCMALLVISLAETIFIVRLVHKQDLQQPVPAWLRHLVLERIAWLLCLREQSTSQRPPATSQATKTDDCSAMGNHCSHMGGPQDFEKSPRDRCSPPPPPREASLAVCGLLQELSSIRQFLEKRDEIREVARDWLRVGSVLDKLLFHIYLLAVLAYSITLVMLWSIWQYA
In words: Receptor binding, 5HT3. Particulars: 5HT3 receptor; read-out: Setiptiline (Ki).
Text: as §1

The target in test [5] is α2, non-selective. In words: Receptor binding, α2 non-selective. Particulars: read-out: Setiptiline (Ki).
Text: as §1

In test [6] the target is T4, 5HT1A sertotonin receptor (Homo sapiens, UniProt P08908).
T4 sequence (P08908 1-422): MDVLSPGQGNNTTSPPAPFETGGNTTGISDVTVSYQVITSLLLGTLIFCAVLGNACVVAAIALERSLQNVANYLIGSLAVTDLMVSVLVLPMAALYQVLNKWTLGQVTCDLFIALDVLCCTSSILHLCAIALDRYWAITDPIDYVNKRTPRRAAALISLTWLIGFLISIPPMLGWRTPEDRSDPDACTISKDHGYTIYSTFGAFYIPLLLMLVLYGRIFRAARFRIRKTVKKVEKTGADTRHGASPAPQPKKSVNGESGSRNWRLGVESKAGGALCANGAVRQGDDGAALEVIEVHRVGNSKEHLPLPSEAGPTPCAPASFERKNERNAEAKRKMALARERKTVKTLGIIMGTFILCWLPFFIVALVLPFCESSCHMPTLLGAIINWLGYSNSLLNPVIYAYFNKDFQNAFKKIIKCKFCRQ
Kind of test: Affinity for the 5HT1A serotonin receptor. Particulars: read-out: affinity for the 5HT1A sertotonin receptor (pKi) (converted). In kind it is binding.

Test [7] addresses T3, 5HT3. Particulars: read-out: Mirtazapine (Ki); 5HT3 receptor; from de Boer et al., 1996; cited from earlier work.
Test [8] addresses α2, non-selective. As to conditions: read-out: Mirtazapine (Ki); α2, non-selective receptor; from de Boer et al., 1996; cited from earlier work.
For test [9], the target named is 5HT2, non-selective. Particulars: read-out: Mirtazapine (Ki); 5HT2, non-selective receptor; from de Boer et al., 1996; cited from earlier work.
Test [10] has as its target T1, 5HT2C. Particulars: read-out: Mirtazapine (Ki); 5HT2C receptor; from de Boer et al., 1996; cited from earlier work.
Test [11] addresses α1, non-selective. As to conditions: read-out: Mirtazapine (Ki); α1, non-selective receptor; from de Boer et al., 1996; cited from earlier work.

T1 sequence (P28335 33-458, species assumed): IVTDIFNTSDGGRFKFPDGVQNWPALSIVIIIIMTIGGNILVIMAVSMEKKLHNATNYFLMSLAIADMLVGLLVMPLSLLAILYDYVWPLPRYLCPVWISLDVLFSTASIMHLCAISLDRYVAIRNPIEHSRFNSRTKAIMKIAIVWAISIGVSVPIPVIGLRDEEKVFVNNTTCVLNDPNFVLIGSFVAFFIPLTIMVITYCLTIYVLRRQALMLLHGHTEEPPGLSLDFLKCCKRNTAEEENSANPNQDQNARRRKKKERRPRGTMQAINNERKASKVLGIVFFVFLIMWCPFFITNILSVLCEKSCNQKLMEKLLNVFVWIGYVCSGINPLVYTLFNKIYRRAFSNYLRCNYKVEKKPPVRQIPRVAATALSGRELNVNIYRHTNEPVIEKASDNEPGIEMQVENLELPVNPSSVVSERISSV

Consider `CN1CCC2=C(C1)c1ccccc1Cc1ccccc12`, for which the Ki is 0.00071 µM on 5HT2, non-selective [1]; 1.96 µM at NET; 0.00047 µM on 5HT2C [2]; 0.258 µM at Muscarinic M1; more than 10 µM on SERT; 0.144 µM at α1, non-selective [3]. In addition, the Ki on 5HT3 [4] came out at 0.757 µM; on α2, non-selective [5] it was 0.093 µM.
For `CC1CN(c2cccc(Cl)c2)CCN1CCCn1nc2ccccn2c1=O` (centres unmarked) [MER 810], the Ki in [6] is 0.0851 µM.
Take `CN1CCN2c3ncccc3Cc3ccccc3C2C1` (centres unmarked) [Mirtazapine]: the Ki is 0.079 µM on 5HT3 [7]; 0.05 µM on α2, non-selective [8]; 0.0063 µM at 5HT2, non-selective [9]; 0.013 µM on 5HT2C [10]; 0.501 µM on α1, non-selective [11].
